Measured values published in patent US20090325920A1, “METHODS FOR THE TREATMENT OF A TRAUMATIC CENTRAL NERVOUS SYSTEM INJURY” (priority 2005, published 2009).

Experiments:
[1] = test system: patients having moderate to severe TBI; assay: Pilot phase II randomized double-blind trial of progesterone for traumatic brain injury, preliminary evaluation (Example 2); format: in vivo, human
Procedure: The administration protocol was carried out was described above in Example 1.
To determine if a therapeutic response was achieved, the following endpoints were monitored:
ICP reduction determined by calculating “therapeutic intensity level” (ICP-TIL);
duration of coma (injury to awaking);
mortality one-month post injury;
neurological outcome 1 month and 1 year post-injury, as determined by Glasgow outcome scale (GOS), Disability rating scale (DRS) and Galveston orientation and amnesia test (GOAT).
The administration protocol and pharmaceutical composition administered are described in detail in Example 1. Follow up regarding condition occurred at 30 days and 1 year.

[2] = Solubility of progesterone in carriers; format: physicochemical
[3] = clinical; conditions: human, in vivo
Excerpt: This study was approved by the Institutional Review Board of Emory University, the Drug Safety Monitoring Board (NINDS) and the FDA (IND #58,986). After obtaining informed consent, thirty-six patients meeting the inclusion criteria outlined as follows were studied. […] Inclusion criteria required that each patient be ≧18 years old, have a closed head injury arising from blunt trauma, have a moderate to severe brain injury (Index Glasgow Coma Score (GCS) 4-12) and arrive in the Emergency Department and obtain informed consent (from next-of-kin) in less than 11 hours post injury.
Aliquots of each solution were assayed for final concentration and sterility. […] Each kit contained six vials. […] The placebo kits were also formulated with 95% ethanol. Because of the alcohol concentration, doses of study drug were mixed with Intralipid® immediately prior to infusion. Each infusion dose was administered over 12 hours and repeated every 12 hours for a total of 72 hours. […] The dosing worksheet was also used to calculate the volume of study medication to be diluted in Intralipid® for each of the remaining infusion reservoirs at a standard rate of 10 cc/hr.
Nine (5 ml) samples were obtained at the following times during the infusion: pre-infusion (0), 4, 6, 12, 24, 36, 48, 60, and 72 hours. An additional five samples were obtained following cessation of infusion at: 0.5, 1, 2, 4 and 8 hours. Samples were allowed to clot, and then centrifuged After that, the serum was removed and stored at −70° C. until analyzed.
The primary pharmacokinetic parameter, CL, was estimated as the ratio of the dose to area under the serum concentration-time curve (AUC). AUC's were calculated using the linear trapezoidal rule (Veng-Pedersen (1989) Clin Pharmacokinet, 17(6):424-40). The elimination phase rate constant, ke, was calculated from the serum concentration-time data following the termination of the infusion using iterative non-linear regression (WinNonlin®, Pharsight Corporation, Mountain View, Calif.). Volume of Distribution was estimated as the ratio of CL and ke. Css was estimated as the ratio of Dose and CL. Actual Css was defined as the concentration achieved when the slope of the serum concentration-time curve for three or more consecutive samples was not different from zero.
Predicted Css concentrations were calculated as the ratio of the infusion rate/clearance. Differences between predicted and measured Css were made using a ‘t’ test for repeated measures. A Bland-Altman analysis was conducted to assess the magnitude of any bias associated with this approach (Bland and Altman (1986) Lancet, 1(8476):307-10). Pharmacokinetic parameter comparisons between male and female were accomplished using a ‘t’ test for independent means. A p value of less than 0.05 was considered the minimum level for rejection of the null hypothesis.

[4] = Stability of progesterone solutions (isocratic HPLC-UV); format: physicochemical
Excerpt: For all stability testing, the method of […], et al. was used with minor modifications ([…], et al. (1999) Journal of Pharmaceutical & Biomedical Analysis, 19(5):803-8). The method was originally validated to assess the stability of medroxyprogesterone acetate and estradiol valerate tablets. It is an isocratic HPLC-UV method utilizing external standardization. A 5 micron, 4.6×250mm BDS-Hypersil C-18 column (Keystone Scientific) was used and the analyses were completed on an Agilent 100 model HPLC system with photodiode array detector. The mobile phase consisted of 40% 0.07M ammonium acetate buffer, pH 7.2 and 60% acetonitrile. Detection was at […]. […] Reproducibility as assessed by 10 injections of the same preparation on multiple different days was always less that 10%. […] A five point standard curve was run with each analysis.

[5] = number of subjects, treatment A (76 of 99)

CC(=O)[C@H]1CC[C@H]2[C@@H]3CCC4=CC(=O)CC[C@]4(C)[C@H]3CC[C@]12C [progesterone, pregn-4-ene-3,20-dione]
mortality rate ([1]; moderate to severe TBI, three days IV progesterone, preliminary): 12.9%
Brain death, frequency [1, 5]: 4
Medicinal death, frequency [1, 5]: 5
Not Dead, frequency [1, 5]: 67
proportion of subjects experiencing brain death versus group B ([1]; p=0.0295 by Fisher's exact test): significantly lower proportion
proportion of subjects experiencing medical death versus group B ([1]; p=0.6622 by Fisher's exact): not statistically significant
Medicinal death, percent ([1]; percent of all 99 subjects): 5.05%
Not Dead, percent ([1]; percent of all 99 subjects): 67.68%
reduction in brain deaths ([1]; versus control subjects, preliminary): 60%
solubility [2]: soluble only in alcohol
amount dissolved into solution ([2]; Intralipid 20%): up to 4 gm per 1 liter of intralipid
Css actually measured ([3]; both): 0.337 ± 0.135 µg/mL
Css predicted by Ro/CL ([3]; both): 0.332 ± 0.121 µg/mL
clearance ([3]; both, CL): 1.73 L/h/kg
half-life ([3]; both, terminal half-life): 1.78 ± 1 h
Css Measured ([3]; female): 0.316 µg/mL
clearance ([3]; female, CL): 1.88 L/h/kg
Vd ([3]; female, iv): 1.33 L/kg
half-life ([3]; female, t1/2): 2.03 ± 1.08 h
clearance ([3]; male, CL): 1.66 L/h/kg
Vd ([3]; male, iv): 1.62 L/kg
clearance ([3]; male, iv): 1.33 L/h/kg
half-life ([3]; male, t1/2): 1.6 ± 0.95 h
stability of solution ([4]; Intralipid solutions containing progesterone in 95% ethyl alcohol): ≥ 24 h
stability of solution ([4]; solution of progesterone in 95% ethyl alcohol, room temperature): up to 2 years
